Patent publication US20100240683A1, “COMBINATION THERAPY, COMPOSITION AND METHODS FOR THE TREATMENT OF CARDIOVASCULAR DISORDERS” (Syndromex Ltd., priority 2007, published 2010)
Each block holds one molecule with its values, some of them ahead of it.

Columns and labels:
[1] = molecular target: T1, CYP2B6 (Homo sapiens, UniProt P20813); experiment: Fluorimetric CYP inhibition assay, CYP2B6-EFC; conditions: read-out: IC50 CYP2B6; substrate EFC
T1 sequence (P20813 1-491): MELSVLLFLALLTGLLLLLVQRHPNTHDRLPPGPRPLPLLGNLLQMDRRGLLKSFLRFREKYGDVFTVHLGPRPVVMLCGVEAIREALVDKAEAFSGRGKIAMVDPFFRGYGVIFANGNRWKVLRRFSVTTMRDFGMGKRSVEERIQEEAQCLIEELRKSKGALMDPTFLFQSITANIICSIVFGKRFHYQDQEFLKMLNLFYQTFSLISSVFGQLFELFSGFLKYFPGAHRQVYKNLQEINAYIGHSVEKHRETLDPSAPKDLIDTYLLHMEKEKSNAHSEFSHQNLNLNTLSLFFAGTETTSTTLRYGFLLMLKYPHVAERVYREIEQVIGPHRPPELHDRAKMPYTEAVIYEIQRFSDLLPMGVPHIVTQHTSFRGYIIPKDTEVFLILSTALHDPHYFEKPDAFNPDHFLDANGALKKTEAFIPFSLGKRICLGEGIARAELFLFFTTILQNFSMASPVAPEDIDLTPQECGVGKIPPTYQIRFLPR

[2] = molecular target: T2, CYP1A2 (Homo sapiens, UniProt P05177); experiment: in vitro
T2 sequence (P05177 1-516): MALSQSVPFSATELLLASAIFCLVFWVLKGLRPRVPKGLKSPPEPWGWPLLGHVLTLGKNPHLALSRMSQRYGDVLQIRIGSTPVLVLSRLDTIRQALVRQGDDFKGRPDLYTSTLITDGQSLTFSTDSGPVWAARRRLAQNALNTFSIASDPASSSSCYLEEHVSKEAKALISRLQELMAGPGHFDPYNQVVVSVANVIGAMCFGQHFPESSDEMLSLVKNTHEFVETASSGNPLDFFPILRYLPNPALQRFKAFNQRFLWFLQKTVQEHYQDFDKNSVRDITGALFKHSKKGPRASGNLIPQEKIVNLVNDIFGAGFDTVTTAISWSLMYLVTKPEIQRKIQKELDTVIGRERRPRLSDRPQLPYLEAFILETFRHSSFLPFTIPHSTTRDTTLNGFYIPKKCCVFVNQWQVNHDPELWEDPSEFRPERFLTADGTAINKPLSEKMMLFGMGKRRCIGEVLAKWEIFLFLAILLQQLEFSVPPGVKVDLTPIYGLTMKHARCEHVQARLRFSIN

[3] = molecular target: T3, CYP2C8 (Homo sapiens, UniProt P10632)
T3 sequence (P10632 1-490): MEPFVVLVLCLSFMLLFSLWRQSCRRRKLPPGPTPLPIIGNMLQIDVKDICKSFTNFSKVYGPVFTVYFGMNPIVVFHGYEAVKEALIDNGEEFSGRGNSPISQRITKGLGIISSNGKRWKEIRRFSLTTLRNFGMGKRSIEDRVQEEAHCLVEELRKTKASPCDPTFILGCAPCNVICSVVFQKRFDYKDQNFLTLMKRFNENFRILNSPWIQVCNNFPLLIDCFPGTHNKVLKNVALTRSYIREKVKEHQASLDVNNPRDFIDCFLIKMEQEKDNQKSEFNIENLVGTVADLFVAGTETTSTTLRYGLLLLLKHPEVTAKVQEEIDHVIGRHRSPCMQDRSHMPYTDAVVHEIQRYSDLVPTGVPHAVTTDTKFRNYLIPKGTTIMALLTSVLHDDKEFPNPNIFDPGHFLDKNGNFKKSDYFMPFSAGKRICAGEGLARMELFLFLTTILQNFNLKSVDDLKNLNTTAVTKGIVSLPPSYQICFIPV

[4] = molecular target: T3, CYP2C8; experiment: in vitro
[5] = test system: Guinea pigs; experiment: Hypolipidemic effect in Guinea pigs model (plasma TG, cholesterol, lipoproteins); assay type: in vivo, Guinea pig; conditions: Simvastatin table: gavage 10 mg/kg/bw, 21 days, n = 8
Protocol: • Guinea pigs (400-500 g) were obtained from Harlan (Israel) or Harlan (Netherlands). Animals were treated by gavage with Medica 16αα, Medica 16ββ and Simvastatin as indicated in 1% CMC for the specified treatment periods. During treatment period the animals were weighed and observed daily.
Non-fasted guinea pigs were anesthetized with ketamine (75 mg/kg body weight) and xylazine (6 mg/kg body weight), followed by S.C. abdominal injections of 2% lignocaine. Anesthetized animals were bled into tubes containing EDTA. Plasma chylomicrons were removed by centrifugation (20 min, 30K rpm, TST 55.5 rotor). Plasma TG was assayed by Roche/Hitachi kit. Plasma cholesterol was assayed by Roche Diagnostic's kit.
Chylomicrons-free plasma was subjected to continuous KBr-gradient centrifugation (24 h, 40K rpm, SW41 rotor), followed by fractionating gradient tubes into 0.5 ml fractions. TG, cholesterol and protein of each fraction were measured as described above. […]
Guinea pigs were treated by gavage with M16αα, M16ββ or with Simvastatin, weighed and observed daily. Plasma triglycerides (TG) and cholesterol, as well as plasma lipoproteins and their composition were examined on days 21 and 22 (as specified in the following tables) of the experiments, as described in Experimental procedures. As clearly shown by Table 3 and FIG. 1, treatment with M16αα decreases plasma triglycerides (TG).

[6] = molecular target: CYP2C9 (Homo sapiens, UniProt P11712); experiment: Fluorimetric CYP inhibition assay, CYP2C9-MFC; conditions: human, MFC; for inhibition at 0 μM: positive control 0.00 μM (second line); for inhibition at 0.01 μM: positive control 0.01 μM (first line); for inhibition at 0.02 μM: positive control 0.02 μM; for inhibition at 0.06 μM: positive control 0.06 μM; for inhibition at 1.67 μM: positive control 1.67 μM
CYP2C9, sequence (P11712 whole entry): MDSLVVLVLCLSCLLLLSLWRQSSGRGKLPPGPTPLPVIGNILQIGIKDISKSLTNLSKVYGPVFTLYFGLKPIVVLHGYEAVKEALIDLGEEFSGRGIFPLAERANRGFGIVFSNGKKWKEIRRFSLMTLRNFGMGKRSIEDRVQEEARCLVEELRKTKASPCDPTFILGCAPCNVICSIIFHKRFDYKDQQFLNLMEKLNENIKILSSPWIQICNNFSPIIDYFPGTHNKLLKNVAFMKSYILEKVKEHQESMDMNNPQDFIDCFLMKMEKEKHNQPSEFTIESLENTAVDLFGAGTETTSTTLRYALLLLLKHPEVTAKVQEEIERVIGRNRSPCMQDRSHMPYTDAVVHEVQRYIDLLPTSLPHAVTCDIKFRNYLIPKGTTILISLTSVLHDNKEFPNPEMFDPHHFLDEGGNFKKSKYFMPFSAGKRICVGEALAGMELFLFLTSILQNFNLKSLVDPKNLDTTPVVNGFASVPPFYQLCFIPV

SMILES: N[C@@H]1C[C@H]1c1ccccc1 (racemic) [Tranylcypromine, reference compound]
- IC50 [1]: 5.9 µM

- inhibition at 5.56 μM ([2]; % Inhibition (set 1)): 90%
- inhibition at 50 μM ([2]; % Inhibition (set 2)): 99%
SMILES: Cc1nc2c([nH]1)c(=O)n(C)c(=O)n2Cc1ccco1 [Furafylline, reference compound]

- IC50 [3]: 1.4 µM
- % Inhibition (set 2) ([3]; 0.05 μM): 0%
- inhibition at 0.05 μM ([4]; % Inhibition (set 1)): 8%
- inhibition at 0.41 μM ([4]; % Inhibition (set 1)): 16%
- inhibition at 1.23 μM ([4]; % Inhibition (set 1)): 51%
- inhibition at 3.7 μM ([4]; % Inhibition (set 1)): 88%
- inhibition at 11.11 μM ([4]; % Inhibition (set 1)): 100%
- inhibition at 33.33 μM ([4]; % Inhibition (set 1)): 100%
- inhibition at 100 μM ([4]; % Inhibition (set 1)): 100%
- inhibition at 0.05 μM ([4]; % Inhibition (set 2)): 0%
- inhibition at 0.41 μM ([4]; % Inhibition (set 2)): 9%
- inhibition at 1.23 μM ([4]; % Inhibition (set 2)): 32%
- inhibition at 3.7 μM ([4]; % Inhibition (set 2)): 89%
- inhibition at 11.11 μM ([4]; % Inhibition (set 2)): 98%
- inhibition at 33.33 μM ([4]; % Inhibition (set 2)): 100%
- inhibition at 100 μM ([4]; % Inhibition (set 2)): 100%
SMILES: O=c1c(O)c(-c2ccc(O)c(O)c2)oc2cc(O)cc(O)c12 [Quercetin, reference compound]

SMILES: CCC(C)(C)C(=O)O[C@H]1C[C@@H](C)C=C2C=C[C@H](C)[C@H](CC[C@@H]3C[C@@H](O)CC(=O)O3)[C@H]21 [Simvastatin, reference compound]
- Plasma TG [5]: 83 ± 16 mg %
- Plasma cholesterol ([5]; *p < 0.05): 23 ± 2.0* mg %

SMILES: Nc1ccc(S(=O)(=O)Nc2ccnn2-c2ccccc2)cc1 [Sulfaphenazole]
- inhibition at 0 μM ([6]; % Inhibition (set 1)): 0%
- inhibition at 0.01 μM ([6]; % Inhibition (set 1)): 0%
- inhibition at 0.02 μM ([6]; % Inhibition (set 1)): 3%
- inhibition at 0.06 μM ([6]; % Inhibition (set 1)): 11%
- inhibition at 1.67 μM ([6]; % Inhibition (set 1)): 76%
- inhibition at 5 μM ([6]; % Inhibition (set 1), positive control 5.00 μM): 89%
- inhibition at 0 μM ([6]; % Inhibition (set 2)): 0%
- inhibition at 0.01 μM ([6]; % Inhibition (set 2)): 1%
- inhibition at 0.02 μM ([6]; % Inhibition (set 2)): 3%
- inhibition at 0.06 μM ([6]; % Inhibition (set 2)): 6%
- inhibition at 1.67 μM ([6]; % Inhibition (set 2)): 74%
